From patent US12552783B2, “Modulators of proteolysis and associated methods of use” (Arvinas Operations, Inc., priority 2018, dated 2026)

Biological target: KRas (Homo sapiens, UniProt P01116, G12C)
Experiment: KRas degradation in NCI-H2030 cells by Western blot, normalized to GAPDH (data of Table 14)
Assay type: cell-based
Parameters: host or cells: NCI-H2030
Conditions: for Dmax: NCI-H2030
Method in brief: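 Readout: GAPDH-normalized KRas immunoblot signal, expressed as percent degradation versus 0.1% DMSO vehicle. Treatment: 0.3, 1, 3 μM after 24 h starvation; 24 h (VHL-based) or 72 h (others).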

For `C=CC(=O)N1CCN(c2nc(NCCC(=O)N(C)CCOCCOCCOCCOCCOc3cc(-c4scnc4C)ccc3CNC(=O)[C@@H]3C[C@@H](O)CN3C(=O)[C@H](c3cc(C)no3)C(C)C)nc3c(F)c(-c4cc(O)cc5ccccc45)c(Cl)cc23)CC1` [compound 346, (2S,4R)-N-(2-((18-((4-(4-acryloylpiperazin-1-yl)-6-chloro-8-fluoro-7-(3-hydroxynaphthalen-1-yl)quinazolin-2-yl)amino)-15-methyl-16-oxo-3,6,9,12-tetraoxa-15-azaoctadecyl)oxy)-4-(4-methylthiazol-5-yl)benzyl)-4-hydroxy-1-((S)-3-methyl-2-(3-methylisoxazol-5-yl)butanoyl)pyrrolidine-2-carboxamide], the “Percent Degradation at Indicated Concentration (μM)” value (H2030, 0.3 μM) was “C (Percent Degradation: C ≤ 35)”, the “Percent Degradation at Indicated Concentration (μM)” value (H2030, 1 μM) was “C (Percent Degradation: C ≤ 35)” and the “Percent Degradation at Indicated Concentration (μM)” value (H2030, 3 μM) was “C (Percent Degradation: C ≤ 35)”. For the same compound, the Dmax was at most 35%.

With `Cc1ncsc1-c1ccc([C@H](C)NC(=O)[C@@H]2C[C@@H](O)CN2C(=O)[C@@H](NC(=O)COCC/C=C/C(=O)N2CCN(c3nc(NCCC(=O)N(C)C)nc4c(F)c(-c5cc(O)cc6ccccc56)c(Cl)cc34)CC2)C(C)(C)C)cc1` [compound 363, (2S,4R)-1-((2S)-2-(2-(((E)-5-(4-(6-chloro-2-((3-(dimethylamino)-3-oxopropyl)amino)-8-fluoro-7-(3-hydroxynaphthalen-1-yl)quinazolin-4-yl)piperazin-1-yl)-5-oxopent-3-en-1-yl)oxy)acetamido)-3,3-dimethylbutanoyl)-4-hydroxy-N-((S)-1-(4-(4-methylthiazol-5-yl)phenyl)ethyl)pyrrolidine-2-carboxamide] the “Percent Degradation at Indicated Concentration (μM)” value (H2030, 0.3 μM) was “C (Percent Degradation: C ≤ 35)”, the “Percent Degradation at Indicated Concentration (μM)” value (H2030, 1 μM) was “C (Percent Degradation: C ≤ 35)” and the “Percent Degradation at Indicated Concentration (μM)” value (H2030, 3 μM) was “C (Percent Degradation: C ≤ 35)”. The Dmax was at most 35%.

For `CCC(=O)N1CCN(c2nc(NCCC(=O)N(C)CCOCC(=O)N[C@H](C(=O)N3C[C@H](O)C[C@H]3C(=O)N[C@@H](C)c3ccc(-c4scnc4C)cc3)C(C)(C)C)nc3c(F)c(-c4cc(O)cc5ccccc45)c(Cl)cc23)CC1` [compound 186, (2S,4R)-1-((2S)-2-(2-(2-(3-((6-chloro-8-fluoro-7-(3-hydroxynaphthalen-1-yl)-4-(4-propionylpiperazin-1-yl)quinazolin-2-yl)amino)-N-methylpropanamido)ethoxy)acetamido)-3,3-dimethylbutanoyl)-4-hydroxy-N-((S)-1-(4-(4-methylthiazol-5-yl)phenyl)ethyl)pyrrolidine-2-carboxamide], the “Percent Degradation at Indicated Concentration (μM): 0.3” value (“Percent Degradation … 0.3” for short) (H2030 cells, 0.3 μM) was “C (C ≤ 35)”, the “Percent Degradation at Indicated Concentration (μM): 1” value (“Percent Degradation … 1” below) (H2030 cells, 1 μM) was “C (C ≤ 35)” and the “Percent Degradation at Indicated Concentration (μM): 3” value (“Percent Degradation … (μM): 3” for short) (H2030 cells, 3 μM) was “C (C ≤ 35)”. The Dmax (H2030 cells) was at most 35%.

For `C=CC(=O)N1CCN(c2nc(NCCC(=O)N(C)CCOCCOc3ccc4c(c3)C(=O)N(C3CCC(=O)NC3=O)C4=O)nc3c(F)c(-c4cc(O)cc5ccccc45)c(Cl)cc23)CC1` (centres unmarked) [compound 60, 3-((4-(4-acryloylpiperazin-1-yl)-6-chloro-8-fluoro-7-(3-hydroxynaphthalen-1-yl)quinazolin-2-yl)amino)-N-(2-(2-((2-(2,6-dioxopiperidin-3-yl)-1,3-dioxoisoindolin-5-yl)oxy)ethoxy)ethyl)-N-methylpropanamide], the “Percent Degradation … 0.3” value (H2030 cells, 0.3 μM) was “C (C ≤ 35)”, the “Percent Degradation … 1” value (H2030 cells, 1 μM) was “C (C ≤ 35)” and the “Percent Degradation … (μM): 3” value (H2030 cells, 3 μM) was “C (C ≤ 35)”. It also gave a Dmax (H2030 cells) of at most 35%.

For `C=CC(=O)N1CCN(c2nc(Nc3ccc(OCCOCCOCC(=O)N[C@H](C(=O)N4C[C@H](O)C[C@H]4C(=O)N[C@@H](C)c4ccc(-c5scnc5C)cc4)C(C)(C)C)cc3)nc3c(F)c(-c4cc(O)cc5ccccc45)c(Cl)cc23)CC1` [compound 482], the “Percent Degradation at Indicated Concentration (μM)” value (H2030, 0.3 μM) was “C (Percent Degradation: C ≤ 35)”, the “Percent Degradation at Indicated Concentration (μM)” value (H2030, 1 μM) was “C (Percent Degradation: C ≤ 35)” and the “Percent Degradation at Indicated Concentration (μM)” value (H2030, 3 μM) was “C (Percent Degradation: C ≤ 35)”. The Dmax was at most 35%.

In the case of `Cc1ncsc1-c1ccc([C@H](C)NC(=O)[C@@H]2C[C@@H](O)CN2C(=O)[C@@H](NC(=O)COCCOCCN(C)C(=O)CCNc2nc(N3CCN(C(N)=O)CC3)c3cc(Cl)c(-c4cc(O)cc5ccccc45)c(F)c3n2)C(C)(C)C)cc1` [compound 182, 4-(6-chloro-8-fluoro-2-(((S)-14-((2S,4R)-4-hydroxy-2-(((S)-1-(4-(4-methylthiazol-5-yl)phenyl)ethyl)carbamoyl)pyrrolidine-1-carbonyl)-4,15,15-trimethyl-3,12-dioxo-7,10-dioxa-4,13-diazahexadecyl)amino)-7-(3-hydroxynaphthalen-1-yl)quinazolin-4-yl)piperazine-1-carboxamide], the “Percent Degradation at Indicated Concentration (μM)” value (H2030, 0.3 μM) is reported as “C (Percent Degradation: C ≤ 35)”, the “Percent Degradation at Indicated Concentration (μM)” value (H2030, 1 μM) is reported as “C (Percent Degradation: C ≤ 35)” and the “Percent Degradation at Indicated Concentration (μM)” value (H2030, 3 μM) is reported as “C (Percent Degradation: C ≤ 35)”. For the same compound, the Dmax was at most 35%.

With `C=CC(=O)N1CCN(c2nc(NCCC(=O)N(C)CCOc3ccc4c(c3)CN(C3CCC(=O)NC3=O)C4=O)nc3c(F)c(-c4cc(O)cc5ccccc45)c(Cl)cc23)CC1` (centres unmarked) [compound 64, 3-((4-(4-acryloylpiperazin-1-yl)-6-chloro-8-fluoro-7-(3-hydroxynaphthalen-1-yl)quinazolin-2-yl)amino)-N-(2-((2-(2,6-dioxopiperidin-3-yl)-1-oxoisoindolin-5-yl)oxy)ethyl)-N-methylpropanamide] the “Percent Degradation … 0.3” value (H2030 cells, 0.3 μM) was “C (C ≤ 35)”, the “Percent Degradation … 1” value (H2030 cells, 1 μM) was “C (C ≤ 35)” and the “Percent Degradation … (μM): 3” value (H2030 cells, 3 μM) was “C (C ≤ 35)”. The Dmax (H2030 cells) was at most 35%.

`C=CC(=O)N1CCN(c2nc(NCCC(=O)N(C)CCOCCOCCOc3cc(-c4scnc4C)ccc3CNC(=O)[C@@H]3C[C@@H](O)CN3C(=O)[C@H](c3cc(C)no3)C(C)C)nc3c(F)c(-c4cc(O)cc5ccccc45)c(Cl)cc23)CC1` [compound 342, (2S,4R)-N-(2-(2-(2-(2-(3-((4-(4-acryloylpiperazin-1-yl)-6-chloro-8-fluoro-7-(3-hydroxynaphthalen-1-yl)quinazolin-2-yl)amino)-N-methylpropanamido)ethoxy)ethoxy)ethoxy)-4-(4-methylthiazol-5-yl)benzyl)-4-hydroxy-1-((S)-3-methyl-2-(3-methylisoxazol-5-yl)butanoyl)pyrrolidine-2-carboxamide] was tested, and the “Percent Degradation at Indicated Concentration (μM)” value (H2030, 0.3 μM) was “C (Percent Degradation: C ≤ 35)”, the “Percent Degradation at Indicated Concentration (μM)” value (H2030, 1 μM) was “C (Percent Degradation: C ≤ 35)” and the “Percent Degradation at Indicated Concentration (μM)” value (H2030, 3 μM) was “C (Percent Degradation: C ≤ 35)”. The Dmax was at most 35%.

`C=CC(=O)N1CCN(c2nc(NCCC(=O)N(C)CCOCC(=O)N[C@H](C(=O)N3C[C@H](O)C[C@H]3C(=O)N[C@@H](C)c3ccc(-c4scnc4C)cc3)C(C)(C)C)nc3c(F)c(-c4c(O)cccc4F)c(Cl)cc23)CC1` (atropisomer, axis not shown) [compound 206, (2S,4R)-1-((S)-2-(2-(2-(3-(((R)-4-(4-acryloylpiperazin-1-yl)-6-chloro-8-fluoro-7-(2-fluoro-6-hydroxyphenyl)quinazolin-2-yl)amino)-N-methylpropanamido)ethoxy)acetamido)-3,3-dimethylbutanoyl)-4-hydroxy-N-((S)-1-(4-(4-methylthiazol-5-yl)phenyl)ethyl)pyrrolidine-2-carboxamide] was tested, and the “Percent Degradation at Indicated Concentration (μM)” value (H2030, 0.3 μM) was “C (Percent Degradation: C ≤ 35)”, the “Percent Degradation at Indicated Concentration (μM)” value (H2030, 1 μM) was “C (Percent Degradation: C ≤ 35)” and the “Percent Degradation at Indicated Concentration (μM)” value (H2030, 3 μM) was “C (Percent Degradation: C ≤ 35)”. It also gave a Dmax of at most 35%.

For `CCC(=O)N1CCN(c2nc(NCCC(=O)N(C)CCOCCOCCOCCOc3ccc4c(c3)C(=O)N(C3CCC(=O)NC3=O)C4=O)nc3c(F)c(-c4cc(O)cc5ccccc45)c(Cl)cc23)CC1` (centres unmarked) [compound 49, 3-((6-chloro-8-fluoro-7-(3-hydroxynaphthalen-1-yl)-4-(4-propionylpiperazin-1-yl)quinazolin-2-yl)amino)-N-(2-(2-(2-(2-((2-(2,6-dioxopiperidin-3-yl)-1,3-dioxoisoindolin-5-yl)oxy)ethoxy)ethoxy)ethoxy)ethyl)-N-methylpropanamide], the “Percent Degradation … 0.3” value (H2030 cells, 0.3 μM) was “C (C ≤ 35)”, the “Percent Degradation … 1” value (H2030 cells, 1 μM) was “C (C ≤ 35)” and the “Percent Degradation … (μM): 3” value (H2030 cells, 3 μM) was “C (C ≤ 35)”. The Dmax (H2030 cells) was at most 35%.

`C=CC(=O)N1CCN(c2nc(O[C@H](C)CN3CCC(OCCOCCOCCOCC(=O)N[C@H](C(=O)N4C[C@H](O)C[C@H]4C(=O)N[C@@H](C)c4ccc(-c5scnc5C)cc4)C(C)(C)C)CC3)nc3c2CCN(c2cc(O)cc4ccccc24)C3)CC1` [compound 408] was tested, and the “Percent Degradation at Indicated Concentration (μM)” value (H2030 cells, 0.3 μM) was “C (Percent Degradation: C ≤ 35)”, the “Percent Degradation at Indicated Concentration (μM)” value (H2030 cells, 1 μM) was “C (Percent Degradation: C ≤ 35)” and the “Percent Degradation at Indicated Concentration (μM)” value (H2030 cells, 3 μM) was “C (Percent Degradation: C ≤ 35)”.

For `C=CC(=O)N1CCN(c2nc(NCCC(=O)N(C)CCOCCOCCOCCOc3ccc4c(c3)C(=O)N(C3CCC(=O)NC3=O)C4=O)nc3c(F)c(-c4cc(O)cc5ccccc45)c(Cl)cc23)CC1` (centres unmarked) [compound 62, 3-((4-(4-acryloylpiperazin-1-yl)-6-chloro-8-fluoro-7-(3-hydroxynaphthalen-1-yl)quinazolin-2-yl)amino)-N-(2-(2-(2-(2-((2-(2,6-dioxopiperidin-3-yl)-1,3-dioxoisoindolin-5-yl)oxy)ethoxy)ethoxy)ethoxy)ethyl)-N-methylpropanamide], the “Percent Degradation … 0.3” value (H2030 cells, 0.3 μM) was “C (C ≤ 35)”, the “Percent Degradation … 1” value (H2030 cells, 1 μM) was “C (C ≤ 35)” and the “Percent Degradation … (μM): 3” value (H2030 cells, 3 μM) was “C (C ≤ 35)”. It also gave a Dmax (H2030 cells) of at most 35%.
